Experimental data published in paper PMC9938899, “Rice-memolin, a novel peptide derived from rice bran, improves cognitive function after oral administration in mice” (Scientific Reports, 2023).
Where no end group is shown, it is not given here.

Assays:
[1] = tested on: mice fed HFD; experiment: novel object recognition test (ORT) in mice fed a high-fat diet; type: in vivo; conditions: MLA 0.3 mg/kg i.p. with rice-memolin 1 mg/kg p.o. once a day for 3 days, n = 3–5 (Fig. 4)
Procedure: Male ddY mice (11 weeks old) were obtained from SLC (Shizuoka, Japan). They were kept in a temperature-controlled room (23 °C) on a daily 12-h light: 12-h dark cycle. After one week-acclimatization, these mice were fed MF pellets (Oriental Yeast, Tokyo, Japan) as control diet, HFD60 pellets (Oriental Yeast Co., Ltd, Japan) as high-fat diet, or HFD 60 pellets containing 0.04% rice bran protein digest (specially ordered from Oriental Yeast Co., Ltd, Japan) with free access to water for 7 days. The component of HFD60 was previously reported. Animal experiments were conducted in accordance with the Fundamental Guidelines for Proper Conduct of Animal Experiment and Related Activities in Academic Research Institutions under the jurisdiction of the Ministry of Education, Culture, Sports, Science and Technology of Japan, and were approved by the Committee on Animal Experimentation at Kyoto University, Japan. All experiments were approved by the Kyoto University Ethics Committee for Animal Research Use, permission code was R3-13. […]
Cognitive function was evaluated on Day 6 and 7 using two behavioral pharmacological tests: novel object recognition test (ORT) and object location test (OLT). […] Using the ORT, effect of donepezil, a drug currently used for the relief of cognitive deficits associated with mild to moderate Alzheimer’s diseases, was evaluated. […]

[2] = tested on: pepsin and pancreatin; experiment: pepsin and pancreatin digestion of VYTPG with LCMS analysis; type: in vitro ADME; conditions: simulated gastrointestinal digestion; each enzyme treatment time 1 h; LCMS analysis (Supplemental Fig. S1)
Procedure: Pepsin and pancreatin digests of VYTPG and LCMS analysis were performed in a similar manner to previous studies (Shobako et al.) with slight modifications to simulate peptide bioavailability. Each enzyme treatment time was 1 h.

Row | Molecule | effect on the rice-memolin-induced improvement in the novel ORT [1] | stability to digestion by pepsin and pancreatin [2]
1 | CCN1C[C@]2(COC(=O)c3ccccc3N3C(=O)C[C@H](C)C3=O)CC[C@H](OC)[C@@]34[C@@H]5C[C@H]6[C@H](OC)[C@@H]5[C@](O)(C[C@@H]6OC)[C@@](O)([C@@H](OC)[C@H]23)[C@@H]14 [MLA, methyllycaconitine] | inhibited the effects of rice-memolin | –
2 | VYTPG [VYTPG, Val-Tyr-Thr-Pro-Gly] | – | existed even after digestion by pepsin and pancreatin
